Counter-ions that a name gives are not always drawn. Bridge positions count the residues as written; N and C are the ends. Peptide text beside a SMILES is read from it.
Assays:
hERG channel = molecular target: T1, hERG channel (Homo sapiens, UniProt Q12809); experiment: Ki (average)
T1 construct: host or cells: HEK-293 (hERG/HEK-293 cell line, clone 16), membrane preparation
Source text: Table printed on a drawing sheet, FIG. 4
Title: Ki of BeKm-1 Analogs in Two Independent FlashBlue Competition Assays.
Head of the field: Ki (average)
First copying reader's note: The table is panel A of FIG. 4; panel B is a plot and is left out.

[1] = molecular target: T2, hERG K+ channel membranes (hERG/HEK-293 cell line, clone 16) (Homo sapiens, UniProt Q12809); experiment: homogeneous [125I]-BeKm-1 FlashBlue competition assay; type: binding; settings: [125I]-BeKm-1 at 0.17 nM; acetate and TFA salts; one hour at room temperature
T2 construct: host or cells: HEK-293 (hERG/HEK-293 cell line, clone 16), membrane preparation
Description: Acetate and TFA salts of (SeC)^7-BeKm-1 were tested in homogeneous [^125I]-BeKm-1 competition assays using FlashBlue GPCR beads and hERG K^+ channel membranes derived from Perkin Elmer's hERG/HEK-293 cell line (clone 16). […] Assays were run in buffer composed of 20 mM Hepes/Tris pH 7.2, 100 μM KCl, 0.5% BSA. 1.25 μg hERG K^+ channel membranes and 62.5 μg FlashBlue GPCR beads were added to each well of a 384-well white Optiplate. The total assay volume for each well was 40 μl. Plates were spun briefly after a one hour incubation at room temperature prior to signal detection with a TopCount apparatus.

T1 sequence (Q12809 whole entry, looked up): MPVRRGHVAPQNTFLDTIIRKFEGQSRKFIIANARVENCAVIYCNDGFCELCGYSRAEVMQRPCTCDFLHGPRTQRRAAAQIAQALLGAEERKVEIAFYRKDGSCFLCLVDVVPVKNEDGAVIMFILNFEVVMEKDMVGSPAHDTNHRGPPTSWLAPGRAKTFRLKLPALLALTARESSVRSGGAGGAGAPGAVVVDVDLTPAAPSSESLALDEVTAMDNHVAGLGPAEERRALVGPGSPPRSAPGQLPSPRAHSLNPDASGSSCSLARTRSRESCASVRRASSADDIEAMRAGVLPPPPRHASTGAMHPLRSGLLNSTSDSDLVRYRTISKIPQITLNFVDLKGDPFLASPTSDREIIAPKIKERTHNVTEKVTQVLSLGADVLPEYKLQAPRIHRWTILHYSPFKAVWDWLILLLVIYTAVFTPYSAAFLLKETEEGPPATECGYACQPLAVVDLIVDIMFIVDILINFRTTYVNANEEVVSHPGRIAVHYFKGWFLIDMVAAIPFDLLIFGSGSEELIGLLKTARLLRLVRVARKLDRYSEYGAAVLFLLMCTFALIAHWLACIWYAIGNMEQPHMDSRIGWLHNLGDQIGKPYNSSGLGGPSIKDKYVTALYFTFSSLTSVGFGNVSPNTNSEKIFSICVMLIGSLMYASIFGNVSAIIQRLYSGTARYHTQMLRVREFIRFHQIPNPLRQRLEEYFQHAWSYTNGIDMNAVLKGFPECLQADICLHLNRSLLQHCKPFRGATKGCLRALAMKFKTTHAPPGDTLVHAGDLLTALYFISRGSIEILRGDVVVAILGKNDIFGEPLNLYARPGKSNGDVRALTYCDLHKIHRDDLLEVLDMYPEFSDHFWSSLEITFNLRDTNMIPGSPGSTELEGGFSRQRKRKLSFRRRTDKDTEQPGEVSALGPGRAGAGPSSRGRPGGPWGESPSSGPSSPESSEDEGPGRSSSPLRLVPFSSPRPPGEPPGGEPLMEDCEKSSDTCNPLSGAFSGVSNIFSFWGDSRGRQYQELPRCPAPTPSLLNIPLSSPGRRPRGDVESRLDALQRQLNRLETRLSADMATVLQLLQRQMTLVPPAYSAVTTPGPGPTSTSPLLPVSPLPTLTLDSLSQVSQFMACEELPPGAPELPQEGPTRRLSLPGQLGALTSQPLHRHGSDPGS
T2 sequence (Q12809 whole entry): as the sequence (Q12809 whole entry, looked up) above

Molecule	Ki (hERG channel) [nM]	affinity for the hERG channel (Ki, FIG. 4) [1]
CC[C@H](C)[C@H](NC(=O)[C@H](CC(=O)O)NC(=O)[C@@H](NC(=O)[C@@H]1CCCN1C(=O)[C@@H](N)CCCNC(=N)N)[C@@H](C)O)C(=O)N[C@@H](CCCCN)C(=O)N[C@H]1CSSC[C@@H]2NC(=O)[C@H](CCCNC(=N)N)NC(=O)CNC(=O)[C@H](CC(N)=O)NC(=O)[C@H]([C@@H](C)O)NC(=O)[C@H](CCCCN)NC(=O)CNC(=O)[C@H](Cc3ccccc3)NC(=O)[C@H](CCCNC(=N)N)NC(=O)[C@H](CO)NC(=O)[C@H](CCCCN)NC(=O)[C@@H]3CSSC[C@@H](C(=O)N[C@@H](Cc4ccccc4)C(=O)O)NC(=O)[C@H](CC(=O)O)NC(=O)[C@H](CSSC[C@H](NC(=O)[C@H](CCC(N)=O)NC(=O)[C@H](Cc4ccc(O)cc4)NC(=O)[C@H](CO)NC(=O)[C@H](CCC(=O)O)NC(=O)[C@H](CO)NC1=O)C(=O)N[C@@H](Cc1ccccc1)C(=O)N1CCC[C@H]1C(=O)N[C@@H](C(C)C)C(=O)N3)NC(=O)[C@H](Cc1ccccc1)NC(=O)CNC(=O)[C@H](CC(N)=O)NC(=O)[C@H](C(C)C)NC2=O [BeKm-1 TFA Salt] (H-RPTDIKCSESYQCFPVCKSRFGKTNGRCVNGFCDCF-OH; disulfide 7-28, 13-33, 17-35 (inferred))	0.35	
RPTDIKCSESYQCFPVCKSRFGKTNGRCVNGFCDCF [(SeC)^7-BeKm-1]		comparable to that of native BeKm-1

From patent publication US7326772B2, “Peptide for assaying hERG channel binding” (Penta Biotech, Inc., priority 2005, dated 2008)
